Measurements as given in ChEMBL document CHEMBL2413072, “Synthesis and in vitro anticancer studies of novel C-2 arylidene congeners of lantadenes” (2013).
Active and inactive are the calls of the source. The calls are words filed in the database; no cut-off is given here.

Columns and labels:
Format in all cases: functional
[1] = test system: Hs-578T; experiment: Growth inhibition of human Hs 578T cells assessed as growth inhibition at 10 uM by sulforhodamine B assay
[2] = test system: OVCAR-3; experiment: Growth inhibition of human OVCAR3 cells assessed as cell growth at 10^-8 M by sulforhodamine B assay; conditions: read-out: Activity
[3] = test system: UACC-62; experiment: Growth inhibition of human UACC62 cells assessed as cell growth at 10^-8 M by sulforhodamine B assay; conditions: read-out: Activity
[4] = test system: NCI-H522; experiment: Growth inhibition of human NCI-H522 cells assessed as cell growth at 10^-8 M by sulforhodamine B assay; conditions: read-out: Activity
[5] = test system: RXF 393; experiment: Growth inhibition of human RXF393 cells by sulforhodamine B assay
[6] = test system: ACHN; experiment: Growth inhibition of human ACHN cells by sulforhodamine B assay
[7] = test system: 786-0; experiment: Growth inhibition of human 786-0 cells by sulforhodamine B assay
[8] = test system: MDA-MB-468; experiment: Growth inhibition of human MDA-MB-468 cells assessed as cell growth at 10^-4 M by sulforhodamine B assay; conditions: read-out: Activity
[9] = test system: BT-549; experiment: Growth inhibition of human BT549 cells assessed as cell growth at 10^-4 M by sulforhodamine B assay; conditions: read-out: Activity
[10] = test system: RXF 393; experiment: Growth inhibition of human RXF393 cells assessed as cell growth at 10^-4 M by sulforhodamine B assay; conditions: read-out: Activity
[11] = Growth inhibition of human NCI-ADR-RES cells assessed as cell growth at 10^-4 M by sulforhodamine B assay; conditions: read-out: Activity
[12] = test system: SK-MEL-28; experiment: Growth inhibition of human SK-MEL-28 cells assessed as cell growth at 10^-4 M by sulforhodamine B assay; conditions: read-out: Activity
[13] = test system: LOX IMVI; experiment: Growth inhibition of human LOXIMVI cells assessed as cell growth at 10^-4 M by sulforhodamine B assay; conditions: read-out: Activity
[14] = test system: NCI-H23; experiment: Growth inhibition of human NCI-H23 cells assessed as cell growth at 10^-4 M by sulforhodamine B assay; conditions: read-out: Activity
[15] = test system: CCRF-CEM; experiment: Growth inhibition of human CCRF-CEM cells assessed as cell growth at 10^-4 M by sulforhodamine B assay; conditions: read-out: Activity
[16] = test system: ACHN; experiment: Growth inhibition of human ACHN cells assessed as cell growth at 10^-6 M by sulforhodamine B assay; conditions: read-out: Activity
[17] = Growth inhibition of human NCI-ADR-RES cells assessed as cell growth at 10^-6 M by sulforhodamine B assay; conditions: read-out: Activity
[18] = test system: M14; experiment: Growth inhibition of human M14 cells assessed as cell growth at 10^-6 M by sulforhodamine B assay; conditions: read-out: Activity
[19] = test system: LOX IMVI; experiment: Growth inhibition of human LOXIMVI cells assessed as cell growth at 10^-6 M by sulforhodamine B assay; conditions: read-out: Activity
[20] = test system: SF-295; experiment: Growth inhibition of human SF295 cells assessed as cell growth at 10^-6 M by sulforhodamine B assay; conditions: read-out: Activity
[21] = test system: NCI-H322M; experiment: Growth inhibition of human NCI-H322M cells assessed as cell growth at 10^-6 M by sulforhodamine B assay; conditions: read-out: Activity
[22] = test system: HOP-92; experiment: Growth inhibition of human HOP92 cells assessed as cell growth at 10^-6 M by sulforhodamine B assay; conditions: read-out: Activity
[23] = test system: RPMI-8226; experiment: Growth inhibition of human RPMI8226 cells assessed as cell growth at 10^-6 M by sulforhodamine B assay; conditions: read-out: Activity
[24] = test system: HL-60(TB); experiment: Growth inhibition of human HL-60(TB) cells assessed as cell growth at 10^-6 M by sulforhodamine B assay; conditions: read-out: Activity
[25] = test system: 786-0; experiment: Growth inhibition of human 786-0 cells assessed as cell growth at 10^-7 M by sulforhodamine B assay; conditions: read-out: Activity
[26] = test system: OVCAR-3; experiment: Growth inhibition of human OVCAR3 cells assessed as cell growth at 10^-7 M by sulforhodamine B assay; conditions: read-out: Activity
[27] = test system: IGROV-1; experiment: Growth inhibition of human IGROV1 cells assessed as cell growth at 10^-7 M by sulforhodamine B assay; conditions: read-out: Activity
[28] = test system: UACC-257; experiment: Growth inhibition of human UACC257 cells assessed as cell growth at 10^-7 M by sulforhodamine B assay; conditions: read-out: Activity
[29] = test system: SK-MEL-28; experiment: Growth inhibition of human SK-MEL-28 cells assessed as cell growth at 10^-7 M by sulforhodamine B assay; conditions: read-out: Activity
[30] = test system: NCI-H226; experiment: Growth inhibition of human NCI-H226 cells assessed as cell growth at 10^-7 M by sulforhodamine B assay; conditions: read-out: Activity
[31] = test system: SR; experiment: Growth inhibition of human SR cells assessed as cell growth at 10^-7 M by sulforhodamine B assay; conditions: read-out: Activity
[32] = test system: K562; experiment: Growth inhibition of human K562 cells assessed as cell growth at 10^-7 M by sulforhodamine B assay; conditions: read-out: Activity
[33] = test system: RXF 393; experiment: Growth inhibition of human RXF393 cells assessed as cell growth at 10^-8 M by sulforhodamine B assay; conditions: read-out: Activity
[34] = test system: A498; experiment: Growth inhibition of human A498 cells assessed as cell growth at 10^-8 M by sulforhodamine B assay; conditions: read-out: Activity
[35] = test system: SK-OV-3; experiment: Growth inhibition of human SKOV3 cells assessed as cell growth at 10^-8 M by sulforhodamine B assay; conditions: read-out: Activity
[36] = test system: OVCAR-5; experiment: Growth inhibition of human OVCAR5 cells assessed as cell growth at 10^-8 M by sulforhodamine B assay; conditions: read-out: Activity
[37] = read-out: LC50 (the source's name)
[38] = read-out: pLC50 (the source's name) (converted)

## C/C=C(/C)C(=O)O[C@@H]1CC(C)(C)C[C@H]2C3=CC[C@@H]4[C@@]5(C)CC[C@H](O)C(C)(C)[C@@H]5CC[C@@]4(C)[C@]3(C)CC[C@@]12C(=O)O [Reduced Lantadene A]
[1]
  growth inhibition (GI): Active
[2]
  growth at 0.01 µM: 106%
[3]
  growth at 0.01 µM: 96%
[4]
  growth at 0.01 µM: 102%
[5]; read-out: GI50
  GI50: 1.77 µM
[5]; [37]
  CC50: 8.29 µM
[5]; read-out: TGI
  TGI: 3.83 µM
[5]; read-out: pGI50 (converted)
  GI50: 1.78 µM
[5]; [38]
  CC50: 8.32 µM
[5]; read-out: pTGI (converted)
  TGI: 3.8 µM
[6]; read-out: GI50
  GI50: 1.82 µM
[6]; [37]
  CC50: 9.07 µM
[6]; read-out: TGI
  TGI: 4.06 µM
[6]; read-out: pGI50 (converted)
  GI50: 1.82 µM
[6]; [38]
  CC50: 9.12 µM
[6]; read-out: pTGI (converted)
  TGI: 4.07 µM
[7]; read-out: GI50
  GI50: 1.81 µM
[7]; [37]
  CC50: 6.44 µM
[7]; read-out: TGI
  TGI: 3.41 µM
[7]; read-out: pGI50 (converted)
  GI50: 1.82 µM
[7]; [38]
  CC50: 6.46 µM
[7]; read-out: pTGI (converted)
  TGI: 3.39 µM
[8]
  growth at 100 µM: -86%
[9]
  growth at 100 µM: -90%
[10]
  growth at 100 µM: -76%
[11]
  growth at 100 µM: -30%
[12]
  growth at 100 µM: -41%
[13]
  growth at 100 µM: -62%
[14]
  growth at 100 µM: -51%
[15]
  growth at 100 µM: -2%
[16]
  growth at 1 µM: 87%
[17]
  growth at 1 µM: 96%
[18]
  growth at 1 µM: 89%
[19]
  growth at 1 µM: 97%
[20]
  growth at 1 µM: 81%
[21]
  growth at 1 µM: 93%
[22]
  growth at 1 µM: 73%
[23]
  growth at 1 µM: 70%
[24]
  growth at 1 µM: 99%
[25]
  growth at 0.1 µM: 97%
[26]
  growth at 0.1 µM: 112%
[27]
  growth at 0.1 µM: 111%
[28]
  growth at 0.1 µM: 88%
[29]
  growth at 0.1 µM: 88%
[30]
  growth at 0.1 µM: 94%
[31]
  growth at 0.1 µM: 81%
[32]
  growth at 0.1 µM: 105%
[33]
  growth at 0.01 µM: 93%
[34]
  growth at 0.01 µM: 79%
[35]
  growth at 0.01 µM: 100%
[36]
  growth at 0.01 µM: 100%
